Results: US7749976B2, “Isolated PTPMT1 protein which mediates insulin production and uses thereof” (The Regents of the University of California, priority 2005, dated 2010)

Experiments:
Format in all cases: cell-based, rat
INS-1 832/13 cells [1] = experiment: ATP and ADP assays in siRNA-treated INS-1 832/13 cells
Description: (§1) PTPMT1 expression in INS-1 832/13 cells was knocked down using 200 pmol of Ambion siRNA (sense: 5′-GUCUGUGGAUGACAAAGAAtt-3′ (SEQ ID NO:3), antisense: UUCUUUGUCAUCCACAGACtt-3′ (SEQ ID NO:4)) in an Amaxa nucleoporator with buffer T on program T-20, according to the manufacturer's protocol. Approximately 72 hrs post siRNA treatment, cells were treated as outlined in the text, pelleted and lysed in 2% TCA via sonication and/or vortexing. Precipitates were pelleted at 13,200 rpm for 2 minutes. The supernatant was removed, neutralized with 0.5 M Tris pH 7.4, and analyzed for ATP using Promega's ENLITEN luciferase bioluminescence reagent at an appropriate dilution. All ATP measurements were normalized to protein levels, as measured by the BCA method (Pierce). ADP levels were determined by converting ADP to ATP with pyruvate kinase, remeasuring ATP by the above assay, and subtracting the initial ATP readings, as reported (Gorman et al., 2003).
Given PTPMT1's likely juxtaposition with members of the respiratory chain on the inner mitochondrial membrane, assessment of PTPMT1's endogenous function was carried out by measuring its effect on cellular ATP levels. […] Seventy-two hours post siRNA treatment, cells were washed and incubated in a 3.0 mM glucose medium for 2 hr. Cells were then lysed and ATP levels analyzed using a luciferase based luminometry reaction. Strikingly, knockdown of PTPMT1 expression increased ATP levels by an average of 82% over control cells across three separate experiments (FIG. 10B). […] ATP/ADP ratio (FIG. 10C). […] AMPK serves as a sensor of cellular energy status, becoming dephosphorylated (inactivated) when the cellular AMP:ATP ratio decreases. Consistent with the above data, AMPK is more highly phosphorylated in the control cells following the above incubation in low glucose (FIG. 10D). Thus, knockdown of PTPMT1 results in a true increase in cellular energy status, as opposed to merely a general increase in the cellular adenine pool.

INS-1 832/13 cells [2] = experiment: Glucose-stimulated insulin secretion assay; settings: basal (3 mM) and glucose stimulated (15 mM) conditions, out to 120 min
Description: INS-1 832/13 cells (5×10^6 per reaction) were electroporated as above, and split between 4 wells of a 12-well plate. After 72 hours, cells were washed once with low glucose (3 mM) standard assay buffer (SAB: 114 mM NaCl, 4.7 mM KCl, 1.2 mM KH2PO4, 1.16 mM MgSO4, 20 mM HEPES pH 7.2, 25.5 mM NaHCO3, 10 mM CaCl2, 0.2% BSA), and then preincubated for 2 hours in fresh low glucose SAB. After preincubation, 1 mL of low or high (15 mM) glucose SAB was added to each well. At the end of the incubation time, the SAB was removed and saved, and the cells were washed once in PBS, and lysed by freezing and thawing in a Tris-EDTA solution (20 mM Tris pH 7.4, 20 mM EDTA pH 8.0, 10 mM DTT, protease inhibitors). A Bio-Rad protein assay was performed on each lysate sample to standardize the insulin assay results for protein. The ^125I-insulin Coat-A-Count RIA (Diagnostic Products Corp.) was used to assay SAB samples for insulin content.
To test this, INS-1 832/13 cells were again treated with luciferase (control) or PTPMT1 siRNA. Seventy-two hours post siRNA treatment, cells were washed with PBS, and incubated in media containing 3 mM glucose for 2 hrs to normalize insulin release. Fresh media containing either 3 mM (low) or 15 mM (high) glucose media was then added to the cells and insulin secretion analyzed out to 120 min. […]

PTPMT1 = experiment: Knockdown of PTPMT1 expression (immunoblot); settings: Amaxa nucleoporation, INS-1 832/13 cells
Description: as §1
FIG. 10 illustrates that PTPMT1 is involved in the regulation of mitochondrial ATP production. […] In C whole cell ADP was measured as above.
To simultaneously assess the effect that knockdown of PTPMT1 has on mitochondrial phosphoproteins and PI(5)P levels, its expression was knocked-down in a large quantity of INS-1 832/13 cells using adenovirus-delivered siRNA. […]

PTPMT1 siRNA: Ambion siRNA sense 5′-GUCUGUGGAUGACAAAGAAtt-3′ (SEQ ID NO:3), antisense UUCUUUGUCAUCCACAGACtt-3′ (SEQ ID NO:4) (sense GUCUGUGGAUGACAAAGAATT; antisense UUCUUUGUCAUCCACAGACTT; chemistry not given here)
Increase in ATP levels over control cells (INS-1 832/13 cells [1]; 72 h post siRNA, 2 hr in 3.0 mM glucose, average of three experiments): 82%
ADP levels versus control (INS-1 832/13 cells [1]; 72 h post siRNA, low glucose 2 h): Very little, if any, difference
ATP levels versus control with FCCP (INS-1 832/13 cells [1]; same buffer containing 10 μM FCCP): no difference in ATP levels
Insulin secretion versus control (INS-1 832/13 cells [2]): increased insulin secretion at nearly all time points
Endogenous PTPMT1 expression (PTPMT1): highly effective at ablating endogenous PTPMT1 expression
